Data as given in BindingDB's records for doi:10.1016/j.bmcl.2009.07.064 (University of Glasgow, 2009).

Key:
[1] = target: Sodium-dependent dopamine transporter (Rattus norvegicus, UniProt P23977); test: Displacement of [3H]WIN-35428 from DAT in Sprague-Dawley rat brain after 2 hrs by liquid scintillation analysis
Transporter = Transporter (Rattus norvegicus, UniProt Q63380); test: Displacement of [3H]nisoxetine from NAT in Sprague-Dawley rat brain after 4 hrs by liquid scintillation analysis
[2] = target: Sodium-dependent serotonin transporter (Rattus norvegicus, UniProt P31652); test: Displacement of [3H]citalopram from SERT in Sprague-Dawley rat brain after 2 hrs by liquid scintillation analysis
Chain of Sodium-dependent serotonin transporter (P31652 whole entry): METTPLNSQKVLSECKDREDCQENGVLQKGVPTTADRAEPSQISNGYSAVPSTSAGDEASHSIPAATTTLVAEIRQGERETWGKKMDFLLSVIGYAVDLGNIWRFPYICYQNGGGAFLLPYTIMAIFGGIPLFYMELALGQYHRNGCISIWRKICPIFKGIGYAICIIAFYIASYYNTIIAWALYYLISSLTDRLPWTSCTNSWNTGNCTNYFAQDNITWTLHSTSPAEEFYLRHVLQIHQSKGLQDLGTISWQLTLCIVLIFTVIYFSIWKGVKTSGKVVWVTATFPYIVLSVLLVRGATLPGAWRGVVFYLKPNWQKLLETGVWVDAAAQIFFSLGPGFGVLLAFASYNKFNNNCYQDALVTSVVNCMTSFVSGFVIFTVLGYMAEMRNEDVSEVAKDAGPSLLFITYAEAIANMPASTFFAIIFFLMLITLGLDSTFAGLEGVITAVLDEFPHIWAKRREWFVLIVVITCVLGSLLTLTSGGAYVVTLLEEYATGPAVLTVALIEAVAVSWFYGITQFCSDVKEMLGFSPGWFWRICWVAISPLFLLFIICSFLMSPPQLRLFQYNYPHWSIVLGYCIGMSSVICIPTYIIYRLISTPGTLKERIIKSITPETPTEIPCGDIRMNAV

Chain of Transporter (Q63380 whole entry): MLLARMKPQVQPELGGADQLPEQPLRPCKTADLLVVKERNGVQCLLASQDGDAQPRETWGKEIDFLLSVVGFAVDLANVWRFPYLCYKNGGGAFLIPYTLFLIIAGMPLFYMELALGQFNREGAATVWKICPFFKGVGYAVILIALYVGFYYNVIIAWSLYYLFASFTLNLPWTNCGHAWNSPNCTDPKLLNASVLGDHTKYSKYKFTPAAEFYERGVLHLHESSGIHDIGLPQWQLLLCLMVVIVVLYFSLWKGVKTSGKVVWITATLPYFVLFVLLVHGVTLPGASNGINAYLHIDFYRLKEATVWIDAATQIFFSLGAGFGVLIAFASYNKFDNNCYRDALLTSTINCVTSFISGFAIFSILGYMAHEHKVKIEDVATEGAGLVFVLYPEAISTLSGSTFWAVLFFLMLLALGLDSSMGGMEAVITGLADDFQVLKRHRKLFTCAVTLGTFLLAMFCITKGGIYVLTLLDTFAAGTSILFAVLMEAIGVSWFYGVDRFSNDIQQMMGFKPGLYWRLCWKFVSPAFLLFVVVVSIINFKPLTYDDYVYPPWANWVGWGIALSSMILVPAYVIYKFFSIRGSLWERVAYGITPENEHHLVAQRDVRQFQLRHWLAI
Chain of Sodium-dependent dopamine transporter (P23977 whole entry): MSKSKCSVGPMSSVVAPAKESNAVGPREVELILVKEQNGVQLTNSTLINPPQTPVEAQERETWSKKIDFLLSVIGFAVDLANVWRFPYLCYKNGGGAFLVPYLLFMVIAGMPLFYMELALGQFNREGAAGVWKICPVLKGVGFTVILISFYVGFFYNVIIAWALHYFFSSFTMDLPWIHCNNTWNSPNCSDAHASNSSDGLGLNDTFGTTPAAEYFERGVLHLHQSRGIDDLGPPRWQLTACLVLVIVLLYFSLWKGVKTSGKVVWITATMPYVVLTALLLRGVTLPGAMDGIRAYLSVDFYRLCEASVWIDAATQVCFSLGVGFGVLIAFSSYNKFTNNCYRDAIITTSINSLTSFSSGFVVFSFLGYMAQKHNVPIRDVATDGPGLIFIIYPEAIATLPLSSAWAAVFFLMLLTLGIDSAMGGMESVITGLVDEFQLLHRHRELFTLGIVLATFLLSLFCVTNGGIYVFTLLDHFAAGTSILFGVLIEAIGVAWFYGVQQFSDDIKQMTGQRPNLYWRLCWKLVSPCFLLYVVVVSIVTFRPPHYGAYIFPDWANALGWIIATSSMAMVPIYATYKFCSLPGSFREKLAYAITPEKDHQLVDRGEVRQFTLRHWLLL

Ki [1] [µM]	Ki (Transporter) [µM]	Ki [2] [µM]	SMILES
1.9	1.7	0.154	Ic1cccc(O[C@@H](c2ccccc2)[C@H]2CNCCO2)c1 [(2R,3S)-2-[(3-Iodophenoxy)phenylmethyl]morpholine]
2.1	1.1	0.0345	Ic1ccc(O[C@@H](c2ccccc2)[C@H]2CNCCO2)cc1 [(2R,3S)-2-[(4-Iodophenoxy)phenylmethyl]morpholine]
0.526	0.0084	0.0515	Ic1ccccc1O[C@@H](c1ccccc1)[C@H]1CNCCO1 [(2R,3S)-2-[(2-Iodophenoxy)phenylmethyl]morpholine]
